Source: PubChem BioAssay AID2321 (Johns Hopkins Ion Channel Center, 2010)
Active and inactive are the calls of the source. The rule behind the calls is not given here.

Biological target: Voltage-gated inwardly rectifying potassium channel KCNH2 (Homo sapiens) (UniProt Q12809)
Assay: hERG current rescue from dofetilide block, late-stage follow-up, orthogonal assay, cell-based, manual patch clamp, HEK293-hERG (AID 2321)
Conditions: at 10 µM, stronger effect = higher value

Voltage-gated inwardly rectifying potassium channel KCNH2 (Homo sapiens), sequence (Q12809 whole entry, looked up): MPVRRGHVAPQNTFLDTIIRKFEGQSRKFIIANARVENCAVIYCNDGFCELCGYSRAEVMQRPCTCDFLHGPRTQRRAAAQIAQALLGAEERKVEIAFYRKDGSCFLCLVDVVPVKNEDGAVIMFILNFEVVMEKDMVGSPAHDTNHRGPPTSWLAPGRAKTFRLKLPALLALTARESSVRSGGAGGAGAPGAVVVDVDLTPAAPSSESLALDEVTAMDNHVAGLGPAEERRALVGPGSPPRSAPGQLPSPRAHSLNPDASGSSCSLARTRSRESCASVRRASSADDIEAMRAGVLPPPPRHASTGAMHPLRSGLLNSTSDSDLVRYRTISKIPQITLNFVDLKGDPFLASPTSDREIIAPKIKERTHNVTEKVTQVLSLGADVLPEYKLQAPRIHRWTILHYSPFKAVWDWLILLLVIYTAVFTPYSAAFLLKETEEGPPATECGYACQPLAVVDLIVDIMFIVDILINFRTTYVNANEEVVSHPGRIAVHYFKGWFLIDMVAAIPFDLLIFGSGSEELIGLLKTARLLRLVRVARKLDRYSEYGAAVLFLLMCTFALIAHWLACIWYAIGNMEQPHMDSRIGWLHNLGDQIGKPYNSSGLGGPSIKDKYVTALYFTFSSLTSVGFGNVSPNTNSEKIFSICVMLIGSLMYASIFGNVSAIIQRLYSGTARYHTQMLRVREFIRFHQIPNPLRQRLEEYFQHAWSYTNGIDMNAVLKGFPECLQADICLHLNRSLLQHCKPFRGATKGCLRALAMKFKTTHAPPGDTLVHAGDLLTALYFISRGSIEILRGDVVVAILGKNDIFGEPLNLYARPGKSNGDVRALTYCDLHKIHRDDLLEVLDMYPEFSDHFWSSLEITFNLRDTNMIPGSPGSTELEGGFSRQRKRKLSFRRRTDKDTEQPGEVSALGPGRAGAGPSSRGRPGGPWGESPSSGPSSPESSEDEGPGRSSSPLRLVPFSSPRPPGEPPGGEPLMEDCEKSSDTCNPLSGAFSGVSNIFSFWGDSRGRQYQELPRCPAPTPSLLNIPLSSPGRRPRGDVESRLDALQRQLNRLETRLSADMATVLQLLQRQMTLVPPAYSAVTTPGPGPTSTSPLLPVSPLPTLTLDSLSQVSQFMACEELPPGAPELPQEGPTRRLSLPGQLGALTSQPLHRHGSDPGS

`COc1ccc(OC)c(NC(=S)NC(=O)c2ccc(Br)o2)c1` was tested. Which percent unblocked did it give?
The percent unblocked was 0% (inactive).

Which percent unblocked does the source give for `COc1ccccc1NC(=S)NC(=O)c1ccc(-c2ccc(Cl)cc2)o1` here?
Its percent unblocked is 0% (inactive).

Which percent unblocked does the source give for `O=C(O)c1cc(Cl)ccc1Nc1nc2cc(Cl)ccc2o1` here?
Its percent unblocked is 0% (inactive).

How did the percent unblocked turn out when `O=C(O)c1ccccc1Nc1nc2cc(Cl)ccc2o1` was run?
Its percent unblocked is 0% (inactive).

`Clc1ccc2oc(Nc3ccccn3)nc2c1` was tested. Which percent unblocked did it give?
Its percent unblocked is 0% (inactive).

How did the percent unblocked turn out when `O=C(O)c1ccc(Nc2nc3cc(Cl)ccc3o2)cc1` was run?
Its percent unblocked is 0% (inactive).

How did the percent unblocked turn out when `CN(c1ccccc1)c1nc2cc(Cl)ccc2o1` was run?
Its percent unblocked is 0% (inactive).

With `O=C(COc1ccc2ccccc2c1Br)Nc1cccnc1` as the molecule, how does the percent unblocked read?
The percent unblocked was 0% (inactive).

`Cc1ccc(C(=O)Nc2nc3ccccc3c(=O)s2)cc1` was tested. Which percent unblocked did it give?
Its percent unblocked is 0% (inactive).
